Molecular target: T1, NLRP3 inflammasome (Homo sapiens, UniProt Q96P20)
T1 construct: endogenous in cells; host or cells: THP-1 cells, PMA-differentiated and stimulated with LPS and ATP
Assay: THP-1 IL-1β production inhibition test
Type: cell-based
Conditions: PMA-treated THP-1 cells, LPS 50 ng/ml + ATP 5 mM, 2 hours, IL-1β in supernatant by ELISA
Experimental: Test Example 1: THP-1 IL-1β Production Inhibition Test
PMA (phorbol myristate acetate, SIGMA, P1585) was added to THP-1 cells in an amount of 50 ng/mL to culture the cells for 2 days at 37° C. The culture medium was replaced with a serum-free RPMI-1640 medium, and a compound with a known concentration was added thereto to culture the cells at 37° C. for 15 minutes. LPS (Lipopolysaccharide, SIMGA, L2880) and ATP (Adenosine triphosphate, SIGMA, A2383) were added so that final concentrations become 50 ng/ml and 5 mM, respectively, followed by culturing at 37° C. for 2 hours. The supernatants were collected to measure the concentrations of IL-1β by ELISA (DuoSet ELISA human IL-1β, R&D Systems, DY201). The IL-1β concentrations were plotted against log concentrations of test compounds, and an IC50 value was calculated by sigmoid Emax model nonlinear regression analysis.
Example compounds were confirmed to inhibit NLRP3 inflammasome activation and IL-1β production.

T1 sequence (Q96P20 whole entry): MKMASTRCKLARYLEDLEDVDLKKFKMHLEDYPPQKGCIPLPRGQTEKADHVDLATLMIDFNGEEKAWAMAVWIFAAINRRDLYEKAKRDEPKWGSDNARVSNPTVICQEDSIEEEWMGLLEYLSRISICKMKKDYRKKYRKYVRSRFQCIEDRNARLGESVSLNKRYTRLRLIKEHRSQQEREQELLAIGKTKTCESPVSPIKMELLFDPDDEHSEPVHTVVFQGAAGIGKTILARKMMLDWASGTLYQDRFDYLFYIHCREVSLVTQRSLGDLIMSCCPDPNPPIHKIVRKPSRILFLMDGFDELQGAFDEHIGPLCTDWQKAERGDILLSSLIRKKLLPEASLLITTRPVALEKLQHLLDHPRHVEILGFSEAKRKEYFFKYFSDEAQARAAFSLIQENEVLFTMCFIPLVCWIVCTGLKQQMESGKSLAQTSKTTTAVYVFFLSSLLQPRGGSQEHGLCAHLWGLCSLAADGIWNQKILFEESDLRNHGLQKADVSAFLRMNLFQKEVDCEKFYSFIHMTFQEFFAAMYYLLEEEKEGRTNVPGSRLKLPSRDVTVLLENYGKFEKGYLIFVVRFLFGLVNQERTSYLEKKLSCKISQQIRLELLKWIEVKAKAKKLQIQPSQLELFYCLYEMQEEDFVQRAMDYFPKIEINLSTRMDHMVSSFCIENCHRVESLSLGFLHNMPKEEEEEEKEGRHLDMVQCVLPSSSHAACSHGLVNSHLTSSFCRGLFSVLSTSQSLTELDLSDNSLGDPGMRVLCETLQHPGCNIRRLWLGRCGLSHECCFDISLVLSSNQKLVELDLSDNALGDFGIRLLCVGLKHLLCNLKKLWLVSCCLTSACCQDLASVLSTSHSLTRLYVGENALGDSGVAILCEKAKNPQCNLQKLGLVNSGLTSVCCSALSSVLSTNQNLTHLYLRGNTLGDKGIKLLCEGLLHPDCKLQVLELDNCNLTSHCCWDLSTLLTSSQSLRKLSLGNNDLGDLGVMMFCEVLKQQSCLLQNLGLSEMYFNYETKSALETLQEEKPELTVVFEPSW

IC50 [nM]	Compound
40	CC(=O)NCCCCN1CCOCc2c1nnc(-c1ccc(C(F)(F)F)cc1O)c2C [Example 25]
3	CCN1CCC[C@@H](N2CCCc3c2nnc(-c2ccc(C(F)(F)F)cc2O)c3C)C1 [Example 3, 2-{8-[(3R)-1-ethylpiperidin-3-yl]-4-methyl-5,6,7,8-tetrahydropyrid[2,3-c]pyridazin-3-yl}-5-(trifluoromethyl)phenol]
26	CCN1CCN([C@@H]2CCCC[C@H]2O)c2nnc(-c3ccc(C(F)(F)F)cc3O)c(C)c2C1 [Example 41, 2-{6-ethyl-9-[(1R,2R)-2-hydroxycyclohexyl]-4-methyl-6,7,8,9-tetrahydro-5H-pyridazino[3,4-e][1,4]diazepin-3-yl}-5-(trifluoromethyl)phenol]
120	Cc1c(-c2ccc(C(F)(F)F)cc2O)nnc2c1CCCN2[C@@H]1CC[C@H](C#N)C1 [Example 22]
6.8	Cc1c(-c2ccc(C(F)(F)F)cc2O)nnc2c1COCCN2[C@@H]1CCCC[C@H]1O [Example 4, 2-{9-[(1R,2R)-2-hydroxycyclohexyl]-4-methyl-5,7,8,9-tetrahydropyridazino[3,4-e][1,4]oxaazepin-3-yl}-5-(trifluoromethyl)phenol]
26	CC(=O)N1CCC[C@@H](N2CCCc3c2nnc(-c2ccc(C(F)(F)F)cc2O)c3C)C1 [Example 8]
410	CN[C@@H]1CCCC[C@H]1N1CCCc2c1nnc(-c1ccc(C(F)(F)F)cc1O)c2C [Example 17]
37	Cc1c(-c2ccc(C(F)(F)F)cc2O)nnc2c1CCCN2[C@@H]1CCCN(S(C)(=O)=O)C1 [Example 34, 2-{8-[(3R)-1-(methansulfonyl)piperidin-3-yl]-4-methyl-5,6,7,8-tetrahydropyrido[2,3-c]pyridazin-3-yl}-5-(trifluoromethyl)phenol]
16	Cc1c(-c2ccc(C(F)(F)F)cc2O)nnc2c1CCCN2[C@@H]1CCCC[C@H]1O [Example 1, 2-{8-[(1R,2R)-2-hydroxycyclohexyl]-4-methyl-5,6,7,8-tetrahydropyrido[2,3-c]pyridazin-3-yl}-5-(trifluoromethyl)phenol]
8.1	Cc1c(-c2ccc(OC(F)F)cc2O)nnc2c1CCCN2[C@@H]1CCCC[C@H]1O [Example 28, 5-(difluoromethoxy)-2-{8-[(1R,2R)-2-hydroxycyclohexyl]-4-methyl-5,6,7,8-tetrahydropyrido[2,3-c]pyridazin-3-yl}phenol]
14	COc1ccc(-c2nnc3c(c2C)COCCN3[C@@H]2CCCN(C)C2)c(O)c1 [Example 6, 5-methoxy-2-{4-methyl-9-[(3R)-1 methylpiperidin-3-yl]-5,7,8,9-tetrahydropyridazino[3,4-e][1,4]oxaazepin-3-yl}phenol]
44	Cc1c(-c2ccc(C(F)(F)F)cc2O)nnc2c1CCCCN2[C@@H]1CCCC[C@H]1O [Example 12]
60	Cc1c(-c2ccc(C(F)(F)F)cc2O)nnc2c1CN(C)[C@H](C)CN2[C@@H]1CCCC[C@H]1O [Example 42]
160	CC(=O)O[C@@H]1CCCC[C@H]1N1CCN(C(C)=O)Cc2c1nnc(-c1ccc(C(F)(F)F)cc1O)c2C [Example 39, (1R,2R)-2-{6-acetyl-3-[2-hydroxy-4-(trifluoromethyl)phenyl]-4-methyl-5,6,7,8-tetrahydro-9H-pyridazino[3,4-e][1,4]diazepin-9-yl}cyclohexyl acetate]
16	Cc1c(-c2ccc(C(F)(F)F)cc2O)nnc2c1CN(C)CCN2[C@@H]1CCCC[C@H]1O [Example 7, 2-{9-[(1R,2R)-2-hydroxycyclohexyl]-4,6-dimethyl-6,7,8,9-tetrahydro-5H-pyridazino[3,4-e][1,4]diazepin-3-yl}-5-(trifluoromethyl)phenol]
15	Cc1cc(C(F)(F)F)cc(O)c1-c1cc2c(nn1)N([C@@H]1CCCC[C@H]1O)CCC2 [Example 18]
13	Cc1c(-c2ccc(C(F)(F)F)cc2O)nnc2c1CCN2[C@H]1CCNC1=O [Example 5, (3S)-3-{3-[2-hydroxy-4-(trifluoromethyl)phenyl]-4-methyl-5,6-dihydro-7H-pyrrolo[2,3-c]pyridazin-7-yl}pyrrolidin-2-one]
200	Cc1c(-c2ccc(C(F)(F)F)cc2O)nnc2c1CCN2C[C@@H](C)O [Example 20]
13	Cc1c(-c2ccc(OC(F)F)cc2O)nnc2c1CCCN2[C@@H]1CCOC[C@H]1O [Example 29, (3S,4R)-4-{3-[4-(difluoromethoxy)-2-hydroxyphenyl]-4-methyl-6,7-dihydropyrido[2,3-c]pyridazin-8(5H)-yl}oxan-3-ol]
230	Cc1c(-c2ccc(C(F)(F)F)cc2O)nnc2c1CNC(=O)N2[C@@H]1CCCC[C@H]1O [Example 37, 8-[(1R,2R)-2-hydroxycyclohexyl]-3-[2-hydroxy-4-(trifluoromethyl)phenyl]-4-methyl-5,8-dihydropyrimido[4,5-c]pyridazin-7 (6H)-one]

IC50 [nM]	Compound
1900	Cc1c(-c2ccc(C(F)(F)F)cc2O)nnc2c1CCCN2[C@@H]1CCN(C)C[C@H]1O [Example 16]
6.3	Cc1c(-c2ccc(C(F)(F)F)cc2O)nnc2c1CCCN2[C@@H]1CCCN(C)C1 [Example 2, 2-{4-methyl-8-[(3R)-1-methylpiperidin-3-yl]-5,6,7,8-tetrahydropyrido[2,3-c]pyridazin-3-yl}-5-(trifluoromethyl)phenol]
55	Cc1c(-c2ccc(C(F)(F)F)cc2O)nnc2c1CCCN2[C@@H]1CCCN(C(N)=O)C1 [Example 33, (3R)-3-{3-[2-hydroxy-4-(trifluoromethyl)phenyl]-4-methyl-6,7-dihydropyrido[2,3-c]pyridazin-8(5H)-yl}piperidin-1-carboxyamide]
96	COC(=O)N1CCC[C@@H](N2CCCc3c2nnc(-c2ccc(C(F)(F)F)cc2O)c3C)C1 [Example 32, (3R)-3-{3-[2-hydroxy-4-(trifluoromethyl)phenyl]-4-methyl-6,7-dihydropyrido[2,3-c]pyridazin-8(5H)-yl}piperidine-1-methyl carboxylate]
16	COC1CCN([C@@H]2CCCC[C@H]2O)c2nnc(-c3ccc(C(F)(F)F)cc3O)c(C)c21 (stereo partly shown) [Example 21]
190	CC(=O)N1CCN([C@@H]2CCCC[C@H]2O)c2nnc(-c3ccc(C(F)(F)F)cc3O)c(C)c2C1 [Example 40, 1-{9-[(1R,2R)-2-hydroxycyclohexyl]-3-[2-hydroxy-4-(trifluoromethyl)phenyl]-4-methyl-5,7,8,9-tetrahydro-6H-pyridazino[3,4-e][1,4]diazepin-6-yl}ethan-1-one]
30	Cc1c(-c2ccc(C(F)(F)F)cc2O)nnc2c1CCCN2[C@@H]1CCCNC1=O [Example 13]
46	Cc1ccc(-c2nnc3c(c2C)CCCN3[C@@H]2CCCN(C)C2)c(O)c1 [Example 11]
11	Cc1c(-c2ccc(C(F)(F)F)cc2O)nnc2c1CN(C)CN2[C@@H]1CCCC[C@H]1O [Example 36, 2-{8-[(1R,2R)-2-hydroxycyclohexyl]-4,6-dimethyl-5,6,7,8-tetrahydropyrimido[4,5-c]pyridazin-3-yl}-5-(trifluoromethyl)phenol]
250	Cc1c(-c2ccc(C(F)(F)F)cc2O)nnc2c1CN(Cc1ccccc1)CCN2[C@@H]1CCCC[C@H]1O [Example 23]
30	Cc1c(-c2ccc(Cl)cc2O)nnc2c1COCCN2[C@@H]1CCCC[C@H]1O [Example 19]
49	Cc1c(-c2ccc(OC(F)(F)F)cc2O)nnc2c1CCCN2[C@@H]1CCCN(C)C1 [Example 10]
22	Cc1c(-c2ccc(C(F)(F)F)cc2O)nnc2c1CCCN2[C@@H]1CCCN(C)C1=O [Example 14]
28	Cc1c(-c2ccc(OC(F)F)cc2O)nnc2c1CCN2[C@H]1CCNC1=O [Example 45, (3S)-3-{3-[4-(difluoromethoxy)-2-hydroxyphenyl]-4-methyl-5,6-dihydro-7H-pyrrolo[2,3-c]pyridazin-7-yl}pyrrolidin-2-one]
35	Cc1c(-c2ccc(C(F)(F)F)cc2O)nnc2c1CCCN2[C@@H]1CCCN(C2COC2)C1 [Example 9]
7.6	Cc1c(-c2ccc(C(F)(F)F)cc2O)nnc2c1CNCCN2[C@@H]1CCCC[C@H]1O [Example 38, 2-{9-[(1R,2R)-2-hydroxycyclohexyl]-4-methyl-6,7,8,9-tetrahydro-5H-pyridazino[3,4-e][1,4]diazepin-3-yl}-5-(trifluoromethyl)phenol]
230	Cc1c(-c2ccc(C(F)(F)F)cc2O)nnc2c1CCCN2c1cc[nH]n1 [Example 43, 2-[4-methyl-8-(1H-pyrazol-3-yl)-5,6,7,8-tetrahydropyrido[2,3-c]pyridazin-3-yl]-5-(trifluoromethyl)phenol]
9.5	Cc1c(-c2ccc(OC(F)F)cc2O)nnc2c1COCCN2[C@@H]1CCCC[C@H]1O [Example 30, 5-(difluoromethoxy)-2-{9-[(1R,2R)-2-hydroxycyclohexyl]-4-methyl-5,7,8,9-tetrahydropyridazino[3,4-e][1,4]oxaazepin-3-yl}phenol]
30	Cc1c(-c2ccc(C(F)F)cc2O)nnc2c1CN(C)CCN2[C@@H]1CCCC[C@H]1O [Example 44, 5-(difluoromethyl)-2-{9-[(1R,2R)-2-hydroxycyclohexyl]-4,6-dimethyl-6,7,8,9-tetrahydro-5H-pyridazino[3,4-e][1,4]diazepin-3-yl}phenol]

Compound	IC50 [nM]
Cc1c(-c2ccc(C(F)(F)F)cc2O)nnc2c1COCCN2[C@@H]1CCCN(CC(F)F)C1 [Example 26]	14

From patent publication US20260209233A1, “ANNULATED PYRIDAZINE DERIVATIVE” (Tenvie Therapeutics, Inc., priority 2022, published 2026)
